{"source": "patent US20260226077A1", "about": "“TYPE II TOPOISOMERASE INHIBITORS AND METHODS OF MAKING AND USING THEREOF” (Ohio State Innovation Foundation, priority 2023, published 2026)", "key": {"[1]": {"tested_on": "D83N", "test": "MIC against D83N mutant", "type": "cell-based"}, "[2]": {"tested_on": "Pseudomonas aeruginosa 27853", "test": "MIC against Pseudomonas aeruginosa 27853", "type": "cell-based"}, "[3]": {"test": "in vitro", "conditions": "mouse, plasma"}, "[4]": {"test": "not given", "remark": "listed apart in the source"}, "[5]": {"tested_on": "S. aureus CF isolate", "test": "MIC against S. aureus CF isolate", "type": "cell-based", "conditions": "Staphylococcus aureus"}, "[6]": {"tested_on": "M121K", "test": "MIC against M121K mutant", "type": "cell-based"}, "[7]": {"test": "in vitro", "conditions": "rat, plasma"}, "[8]": {"tested_on": "TopoIV/gyrase", "test": "TopoIV/gyrase inhibition ratio", "type": "biochemical"}, "[9]": {"test": "not given", "remark": "listed apart in the source"}, "[10]": {"test": "Mouse pharmacokinetics"}, "[11]": {"test": "in vivo", "conditions": "mouse, Mouse Vdss (L)"}, "[12]": {"tested_on": "Burkholderia mallei", "test": "microbe, parasite or virus in culture", "type": "cell-based"}, "[13]": {"tested_on": "Yersinia pestis", "test": "microbe, parasite or virus in culture", "type": "cell-based"}, "[14]": {"conditions": "284: as free base in immunocompetent mice, 147: no footnote"}, "[15]": {"conditions": "as mesylate salt in neutropenic mice"}}, "note": "Marks after values point to notes of the source that are not given here."}
{"smiles": "COc1ccc2ncc(F)c(C[C@H](O)[C@H]3OC[C@H](NCc4cnc5c(n4)NC(=O)CO5)CO3)c2n1", "note": "[Compound 284, 6-(((2-((S)-2-(3-fluoro-6-methoxy-1,5-naphthyridin-4-yl)-1-hydroxyethyl)-trans-1,3-dioxan-5-yl)amino)methyl)-2H-pyrazino[2,3-b][1,4]oxazin-3(4H)-one]", "values": [{"measurement": "MIC", "setting": "[1]", "result": "1 to 2", "unit": "µg/mL"}, {"measurement": "Rat plasma protein binding (% unbound)", "result": 4, "unit": "% unbound"}, {"measurement": "MIC", "setting": "[2]", "result": 64, "unit": "µg/mL"}, {"measurement": "half-life", "setting": "[3]", "result": "> 2", "unit": "h"}, {"measurement": "Human plasma protein binding (% unbound)", "setting": "[4]", "result": 10, "unit": "% unbound"}, {"measurement": "MIC", "setting": "[5]", "result": "0.125 to 0.25", "unit": "µg/mL"}, {"measurement": "MIC", "setting": "[6]", "result": "1 to 4", "unit": "µg/mL"}, {"measurement": "half-life", "setting": "[7]", "result": "> 2", "unit": "h"}, {"measurement": "TopoIV/gyrase ratio", "setting": "[8]", "result": 0.28}, {"measurement": "Safety44 screen at 100 μM", "setting": "[9]", "result": "None >50%"}, {"measurement": "Mouse PK AUClast, unbound (μg*h/mL) after 50 mg/kg oral dose", "setting": "[10]; [14]", "result": "5** μg*h/mL"}, {"measurement": "Mouse PK AUClast, unbound (μg*h/mL) after 50 mg/kg oral dose", "setting": "[10]; [15]", "result": "12*** μg*h/mL"}, {"measurement": "Mouse Clunbound (mL/min/kg)", "setting": "[10]; [14]", "result": "15*** mL/min/kg"}, {"measurement": "Mouse Clunbound (mL/min/kg)", "setting": "[10]; [15]", "result": "45**** mL/min/kg"}, {"measurement": "Vd", "setting": "[11]", "result": 0.36, "unit": "L"}, {"measurement": "MIC90", "setting": "[12]; Burkholderia mallei, read-out: Burkholderia mallei MIC90 (μg/mL)", "result": "> 64", "unit": "µg/mL"}, {"measurement": "Burkholderia mallei MIC50", "setting": "[12]; n = 10", "result": 16, "unit": "µg/mL"}, {"measurement": "MIC50", "setting": "[13]; read-out: Yersinia pestis MIC50 (μg/mL)", "result": 2, "unit": "µg/mL"}, {"measurement": "MIC90", "setting": "[13]; read-out: Yersinia pestis MIC90 (μg/mL)", "result": 8, "unit": "µg/mL"}]}
